Laboratory results from US5607926A, “Cephalosporin antibiotics” (Microcide Pharmaceuticals, Inc., priority 1995, dated 1997).
In brackets after ≈: the same amount, converted by molar mass. Structures can show the parent of a compound that is named as a salt. Where two headings read alike, the source gives them in different places.

Legend:
Assay type in all cases: cell-based
E. faecium ATCC 35667 = assay: In vitro antibacterial evaluation, MIC by agar dilution, E. faecium ATCC 35667; conditions: Enterococcus faecium, ATCC35667, read-out: MIC
Outline: (§1)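 Minimum inhibitory concentrations came from the NCCLS agar dilution method in Mueller-Hinton agar. Each isolate received about 10^4 cfu per spot, and plates were read after 16-20 hours at 35°-36° C.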

[1] = test system: S. aureus 76 (Meth^R)(lac^+); assay: In vitro antibacterial evaluation, MIC by agar dilution, S. aureus 76; conditions: Staphylococcus aureus, read-out: MIC
Outline: as §1

S. haemolyticus (Meth^R) = assay: In vitro antibacterial evaluation, MIC by agar dilution, S. haemolyticus; conditions: Staphylococcus haemolyticus, read-out: MIC
Outline: as §1

P. aeruginosa ATCC 27853 = assay: In vitro antibacterial evaluation, MIC by agar dilution, P. aeruginosa ATCC 27853; conditions: Pseudomonas aeruginosa, ATCC27853, read-out: MIC
Outline: as §1

[2] = test system: S. aureus Col8A (Meth^S)(lac^-); assay: In vitro antibacterial evaluation, MIC by agar dilution, S. aureus Col8A; conditions: Staphylococcus aureus
Outline: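 Agar dilution per NCCLS (1991): two-fold dilutions from 128 μg/mL down to ≤0.25 μg/mL in Mueller-Hinton agar, each level in duplicate. Spots of about 10^4 cfu of log-phase culture; 16-20 h at 35°-36° C. MIC in μg/ml is the lowest concentration inhibiting growth.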

[3] = test system: S. epidermidis ATCC 31432; assay: In vitro antibacterial evaluation, MIC by agar dilution, S. epidermidis ATCC 31432; conditions: Staphylococcus epidermidis, ATCC31432
Outline: as §1

E. faecalis ATCC 29212 = assay: In vitro antibacterial evaluation, MIC by agar dilution, E. faecalis ATCC 29212; conditions: Enterococcus faecalis, ATCC29212; E. faecalis ATCC 29212; read-out: MIC
Outline: as §1

E. coli ATCC 25922 = assay: In vitro antibacterial evaluation, MIC by agar dilution, E. coli ATCC 25922; conditions: Escherichia coli, ATCC25922, read-out: MIC
Outline: as §1

S. aureus ATCC 25923 = assay: In vitro antibacterial evaluation, MIC by agar dilution, S. aureus ATCC 25923; conditions: Staphylococcus aureus, ATCC25923
Description: The compounds of the invention were evaluated against several β-lactamresistant bacteria strains by determining the minimum inhibitory concentration (MIC, μg/ml) of each compound with respect to each strain. The MIC, the lowest concentration of antibiotic which inhibits growth of the test organism, was determined by the agar dilution method.
To determine the MIC for bacterial isolates, the test compound was incorporated in a series of two-fold dilutions into liquified Mueller-Hinton agar. Upon solidification, a number of different bacterial strains were spot inoculated with a replicating device onto the agar surface. […] The procedures used in these studies have been standardized by the National Committee for Clinical Laboratory Standards (NCCLS), as per the NCCLS publication entitled METHODS FOR DILUTION ANTIMICROBIAL SUSCEPTIBILITY TESTS (1991), which is incorporated herein by reference.
Aliquots of antimicrobial agents were prepared in phosphate buffered saline (PBS) at pH 7.2. Tween 20 or DMSO was used as a solubilizing vehicle as needed. Standard methods of vortexing, sonicating and gentle heat were used to facilitate solubilizing the test agent. Typically, the concentration of the stock solution was 10× that of the highest drug concentration tested. A 1.28 mg/mL stock solution was used with a subsequent highest working concentration of 128 μg/mL. Serial two-fold dilutions were done through ≤0.25 μg/mL. Each drug level was tested in duplicate. Two-fold drug dilutions were done in sterile 50 mL tubes with a final drug volume of 5 mL. Upon the addition of 45 mL of molten agar, a 10-fold dilution resulted. Two, 25 mL. plates were then poured into 15×150 mm square Petri plates with grids and allowed to harden.
A control plate with a reference drug, either cefotaxime, vancomycin or imipenem, was used as the positive growth control. Stock concentrations of reference antibiotics were prepared and frozen at -80° C. Upon preparation, the control plates were sealed and stored in the refrigerator for up to 1 week prior to use; however, imipenem control plates had to be prepared just prior to use. All test plates were used within 24 hours of preparation.
Satisfactory results were obtained where the inoculum contained about 10^4 colony forming units (cfu) ±0.5 logs. Starting with pure cultures of the test isolates on agar plates, a few isolated colonies were transferred to a tube of nutrient broth and allowed to grow 4-6 hours at 35°-36° C. to reach log-phase growth. Dropwise addition of the broth culture to PBS was done to match a 0.5 McFarland turbidity standard equal to 10^8 cfu/mL. This was further diluted ten-fold in PBS to reach a working inoculum concentration of 10^7 cfu/mL. When 1 μL of the working inoculum was applied to the agar surface a concentration of about 10^4 cfu per spot was obtained.
Disposable sterile 1 μL loops were used to inoculate test plates, with each isolate in a designated grid on the agar plate. An alternate method of inoculation involved the use of a replica plater, a device with 48 steel pins allowing the simultaneous inoculation of multiple isolates. After the spots had dried, the plates were incubated at 35°-36° C. for 16-20 hours. Endpoints were assessed as the minimum inhibitory concentration (MIC) of antimicrobial agent.

[4] = S. epidermidis ATCC 31432, read-out: MIC
[5] = S. aureus ATCC 25923, read-out: MIC

Row | SMILES | MIC (E. faecium ATCC 35667) [µg/mL] | MIC [1] [µg/mL] | MIC (S. haemolyticus (Meth^R)) [µg/mL] | MIC (P. aeruginosa ATCC 27853) [µg/mL] | MIC [2] [µg/mL] | MIC [3] [µg/mL] | MIC (E. faecalis ATCC 29212) [µg/mL] | MIC (E. coli ATCC 25922) [µg/mL] | MIC (S. aureus ATCC 25923) [µg/mL] | MIC [3, 4] [µg/mL] | MIC (S. aureus ATCC 25923; [5]) [µg/mL]
1 | CSc1ccccc1SC1=C(C(=O)O)N2C(=O)[C@@H](NC(=O)Cc3ccccc3)[C@H]2SC1 [Cmpd 44, (7R)-7-[(Phenylacetyl)amino]-3-(2-methylthiophenylthio)-3-cephem-4-carboxylic acid] | 4 (≈ 8.46 µM) | 4 to 8 (≈ 8.46 to 16.9 µM) | 8 (≈ 16.9 µM) | > 32 | < 0.25 | < 0.25 | 4 (≈ 8.46 µM) | > 32 | < 0.25 |  | 
2 | Cn1cc[n+](Cc2ccc(-c3ccccc3SC3=C(C(=O)[O-])N4C(=O)[C@@H](NC(=O)Cc5ccccc5)[C@H]4SC3)s2)c1 [Cmpd 45, (7R)-7-[(Phenylacetyl)amino]-3-(2-(2-(N-methylimidazoliummethyl)thien-5-yl)phenylthio)-3-cephem-4-carboxylic acid] | 4 (≈ 6.64 µM) | 16 (≈ 26.5 µM) | 32 (≈ 53.1 µM) | > 32 | 0.5 (≈ 0.83 µM) |  | 4 (≈ 6.64 µM) | > 32 |  | < 0.25 | < 0.25
3 | CC(C)(C)c1ccccc1SC1=C(C(=O)O)N2C(=O)[C@@H](NC(=O)Cc3ccccc3)[C@H]2SC1 [Cmpd 46, (7R)-7-[(Phenylacetyl)amino]-3-(2-tert-butylphenylthio)-3-cephem-4-carboxylic acid] | 2 (≈ 4.14 µM) | 8 (≈ 16.6 µM) | 16 (≈ 33.2 µM) | > 32 | < 0.25 | < 0.25 | 2 (≈ 4.14 µM) | > 32 | < 0.25 |  | 
4 | CC(C)Oc1ccccc1SC1=C(C(=O)O)N2C(=O)[C@@H](NC(=O)Cc3ccccc3)[C@H]2SC1 [Cmpd 47, (7R)-7-[(Phenylacetyl)amino]-3-(2-iso-propyloxyphenylthio)-3-cephem-4-carboxylic acid] | 2 (≈ 4.13 µM) | 8 (≈ 16.5 µM) | 16 (≈ 33 µM) | > 32 | < 0.25 | < 0.25 | 4 (≈ 8.25 µM) | > 32 | < 0.25 |  | 
5 | Cn1cc[n+](Cc2ccoc2-c2ccccc2SC2=C(C(=O)[O-])N3C(=O)[C@@H](NC(=O)Cc4ccccc4)[C@H]3SC2)c1 [Cmpd 48, (7R)-7-[(Phenylacetyl)amino]-3-(2-(3-(N-methylimidazoliummethyl)furan-2-yl)phenylthio)-3-cephem-4-carboxylic acid] | 4 (≈ 6.82 µM) | 16 (≈ 27.3 µM) | 16 (≈ 27.3 µM) | > 32 | 0.5 (≈ 0.852 µM) |  | 4 (≈ 6.82 µM) | > 32 |  | < 0.25 | < 0.25
6 | N#Cc1ccc(SC2=C(C(=O)O)N3C(=O)[C@@H](NC(=O)Cc4ccccc4)[C@H]3SC2)c([N+](=O)[O-])c1 [Cmpd 49, (7R)-7-[(Phenylacetyl)amino]-3-(4-cyano-2-nitrophenylthio)-3-cephem-4-carboxylic acid] | 4 (≈ 8.06 µM) | 16 (≈ 32.2 µM) | 32 (≈ 64.4 µM) | > 32 | 0.5 (≈ 1.01 µM) |  | 4 (≈ 8.06 µM) | > 32 |  | < 0.25 | < 0.25
7 | O=Cc1ccccc1SC1=C(C(=O)O)N2C(=O)[C@@H](NC(=O)Cc3ccccc3)[C@H]2SC1 [Cmpd 50, (7R)-7-[(Phenylacetyl)amino]-3-(2-formylphenylthio)-3-cephem-4-carboxylic acid] | 4 (≈ 8.8 µM) | 8 (≈ 17.6 µM) | 8 (≈ 17.6 µM) | > 32 | < 0.25 | < 0.25 | 4 (≈ 8.8 µM) | 8 (≈ 17.6 µM) | < 0.25 |  | 
8 | O=C(Cc1ccccc1)N[C@@H]1C(=O)N2C(C(=O)O)=C(Sc3cccc4c3CCCC4)CS[C@H]12 [Cmpd 56, (7R)-7-[(Phenylacetyl)amino]-3-(5,6,7,8-tetrahydronaphthalen-1-ylthio)-3-cephem-4-carboxylic acid] | 4 (≈ 8.32 µM) | 4 (≈ 8.32 µM) | 16 (≈ 33.3 µM) | > 32 | < 0.25 | < 0.25 | 2 (≈ 4.16 µM) | > 32 | < 0.25 |  | 
9 | O=C(Cc1ccccc1)N[C@@H]1C(=O)N2C(C(=O)O)=C(Sc3ccc4ccccc4c3Br)CS[C@H]12 [Cmpd 57, (7R)-7-[(Phenylacetyl)amino]-3-(1-bromo-naphthalen-2-ylthio)-3-cephem-4-carboxylic acid] | 1 (≈ 1.8 µM) | 2 (≈ 3.6 µM) | 4 (≈ 7.2 µM) | 32 (≈ 57.6 µM) | < 0.25 | < 0.25 | 2 (≈ 3.6 µM) | 32 (≈ 57.6 µM) | < 0.25 |  | 
10 | O=C(Cc1ccccc1)N[C@@H]1C(=O)N2C(C(=O)O)=C(Sc3ccc(CSC4=NCCN4)cc3I)CS[C@H]12 [Cmpd 59, (7R)-7-[(Phenylacetyl)amino]-3-(4-(2-imidazolin-2-ylthiomethyl)-2-iodophenylthio)-3-cephem-4-carboxylic acid] | 4 (≈ 6 µM) | 8 (≈ 12 µM) | 16 (≈ 24 µM) | > 32 | < 0.25 | < 0.25 | 4 (≈ 6 µM) | > 32 | < 0.25 |  | 
11 | N=C(N)NC(=N)SCc1ccc(SC2=C(C(=O)O)N3C(=O)[C@@H](NC(=O)Cc4ccccc4)[C@H]3SC2)c(I)c1 [Cmpd 60, (7R)-7-[(Phenylacetyl)amino]-3-(4-(N-amidino)isothiouroniummethyl-2-iodophenylthio)-3-cephem-4-carboxylate, inner salt] | 1 | 4 | 4 to 8 | > 32 | < 0.25 | < 0.25 | 1 | > 32 | < 0.25 |  | 
12 | N=C(NCCN1CCOCC1)SCc1ccc(SC2=C(C(=O)O)N3C(=O)[C@@H](NC(=O)Cc4ccccc4)[C@H]3SC2)c(I)c1 [Cmpd 61, (7R)-7-[(Phenylacetyl)amino]-3-(4-(N-morpholinoethyl)isothiouroniummethyl-2-iodophenylthio)-3-cephem-4-carboxylate, inner salt] | 4 | 16 | > 32 | > 32 | 0.5 |  | 4 | > 32 |  | < 0.25 | < 0.25
13 | CN(C)C(SCc1ccc(SC2=C(C(=O)[O-])N3C(=O)[C@@H](NC(=O)Cc4ccccc4)[C@H]3SC2)c(I)c1)=[N+](C)C [Cmpd 62, (7R)-7-[(Phenylacetyl)amino]-3-(4-tetra-methylisothiouroniummethyl-2-iodophenylthio)-3-cephem-4-carboxylate, inner salt] | 4 | 16 | 32 | > 32 | < 0.25 | < 0.25 | 2 | > 32 | < 0.25 |  | 
